From the NIST ThermoML archive (doi:10.1016/j.tca.2014.07.022)

Experiment: xn = mol fraction of the nth substance listed
Settings: 100 kPa, Liquid; for viscosity: Concentric cylinders viscometry; for mass density: Vibrating tube method

CC(=O)CC(C)C [4-methylpentan-2-one] + CC(C)O
Settings | mass density [kg/m3] | viscosity [mPa·s]
293.15 K, x1 = 0.067 | 786.4 | 1.722
293.15 K, x1 = 0.1344 | 787.5 | 1.361
293.15 K, x1 = 0.2044 | 788.6 | 1.141
293.15 K, x1 = 0.3035 | 790.2 | 0.962
293.15 K, x1 = 0.3848 | 791.4 | 0.856
293.15 K, x1 = 0.5098 | 793.4 | 0.737
293.15 K, x1 = 0.5987 | 794.7 | 0.691
293.15 K, x1 = 0.6986 | 796.3 | 0.651
293.15 K, x1 = 0.8138 | 798 | 0.619
293.15 K, x1 = 0.9278 | 799.8 | 0.605
293.15 K, x1 = 1 | 800.8 | 0.588
298.15 K, x1 = 0.067 | 782.1 | 1.516
298.15 K, x1 = 0.1344 | 783.1 | 1.217
298.15 K, x1 = 0.2044 | 784.1 | 1.029
298.15 K, x1 = 0.3035 | 785.6 | 0.877
298.15 K, x1 = 0.3848 | 786.8 | 0.784
298.15 K, x1 = 0.5098 | 788.6 | 0.684
298.15 K, x1 = 0.5987 | 790 | 0.64
298.15 K, x1 = 0.6986 | 791.5 | 0.608
298.15 K, x1 = 0.8138 | 793.2 | 0.581
298.15 K, x1 = 0.9278 | 795 | 0.568
298.15 K, x1 = 1 | 796.1 | 0.554
303.15 K, x1 = 0.067 | 777.7 | 1.346
303.15 K, x1 = 0.1344 | 778.6 | 1.09
303.15 K, x1 = 0.2044 | 779.6 | 0.932
303.15 K, x1 = 0.3035 | 781 | 0.8
303.15 K, x1 = 0.3848 | 782.2 | 0.725
303.15 K, x1 = 0.5098 | 784 | 0.638
303.15 K, x1 = 0.5987 | 785.4 | 0.601
303.15 K, x1 = 0.6986 | 786.9 | 0.571
303.15 K, x1 = 0.8138 | 788.7 | 0.547
303.15 K, x1 = 0.9278 | 790.5 | 0.534
303.15 K, x1 = 1 | 791.6 | 0.523
308.15 K, x1 = 0.067 | 773.2 | 1.19
308.15 K, x1 = 0.1344 | 774.1 | 0.985
308.15 K, x1 = 0.2044 | 775 | 0.849
308.15 K, x1 = 0.3035 | 776.4 | 0.736
308.15 K, x1 = 0.3848 | 777.5 | 0.669
308.15 K, x1 = 0.5098 | 779.3 | 0.594
308.15 K, x1 = 0.5987 | 780.7 | 0.562
308.15 K, x1 = 0.6986 | 782.2 | 0.536
308.15 K, x1 = 0.8138 | 784 | 0.515
308.15 K, x1 = 0.9278 | 785.7 | 0.503
308.15 K, x1 = 1 | 786.9 | 0.493
313.15 K, x1 = 0.067 | 768.7 | 1.059
313.15 K, x1 = 0.1344 | 769.5 | 0.884
313.15 K, x1 = 0.2044 | 770.4 | 0.769
313.15 K, x1 = 0.3035 | 771.8 | 0.675
313.15 K, x1 = 0.3848 | 772.9 | 0.619
313.15 K, x1 = 0.5098 | 774.7 | 0.555
313.15 K, x1 = 0.5987 | 776 | 0.528
313.15 K, x1 = 0.6986 | 777.5 | 0.505
313.15 K, x1 = 0.8138 | 779.3 | 0.486
313.15 K, x1 = 0.9278 | 781.1 | 0.473
313.15 K, x1 = 1 | 782.3 | 0.463
318.15 K, x1 = 0.067 | 764.1 | 0.949
318.15 K, x1 = 0.1344 | 764.8 | 0.799
318.15 K, x1 = 0.2044 | 765.7 | 0.695
318.15 K, x1 = 0.3035 | 767 | 0.615
318.15 K, x1 = 0.3848 | 768.1 | 0.565
318.15 K, x1 = 0.5098 | 769.9 | 0.516
318.15 K, x1 = 0.5987 | 771.2 | 0.495
318.15 K, x1 = 0.6986 | 772.7 | 0.475
318.15 K, x1 = 0.8138 | 774.6 | 0.459
318.15 K, x1 = 0.9278 | 776.4 | 0.447
318.15 K, x1 = 1 | 777.6 | 0.437
323.15 K, x1 = 0.067 | 759.4 | 0.845
323.15 K, x1 = 0.1344 | 760.2 | 0.718
323.15 K, x1 = 0.2044 | 761 | 0.629
323.15 K, x1 = 0.3035 | 762.3 | 0.56
323.15 K, x1 = 0.3848 | 763.4 | 0.52
323.15 K, x1 = 0.5098 | 765.2 | 0.48
323.15 K, x1 = 0.5987 | 766.5 | 0.462
323.15 K, x1 = 0.6986 | 768.1 | 0.448
323.15 K, x1 = 0.8138 | 769.9 | 0.435
323.15 K, x1 = 0.9278 | 771.8 | 0.422
323.15 K, x1 = 1 | 773 | 0.41
